Assay results from the supplement of paper PMC10307832.

Experiments:
BI-D1870 = compound: CC(C)CCN1c2nc(Nc3cc(F)c(O)c(F)c3)ncc2N(C)C(=O)C1C [BI-D1870]; experiment: relative viability (nuclei count vs DMSO), 5 days (fraction); higher = more cells survive
Method in brief: (§1)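 Five library-drug doses, separated by factors of √10, were pinned into 1536-well plates holding lung cancer cell lines after an overnight stay at 37 °C. Cells were fixed, permeabilised and Hoechst-stained in one step after 5 days without medium change, then imaged at 4×. Viability compares treated-well with vehicle-well nuclei, counted in MetaXpress, as a median across plates. Passing plates had control CV below 25% and at least one doubling.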

Zebularine = compound: O=c1ncccn1[C@@H]1O[C@H](CO)[C@@H](O)[C@H]1O [Zebularine]; experiment: as above
Method in brief: as §1

Cell Line | relative viability (BI-D1870; 0.04 µM) | relative viability (BI-D1870; 0.1265 µM) | relative viability (BI-D1870; 0.4 µM) | relative viability (BI-D1870; 1.265 µM) | relative viability (BI-D1870; 4 µM) | relative viability (Zebularine; 1 µM) | relative viability (Zebularine; 3.162 µM) | relative viability (Zebularine; 10 µM) | relative viability (Zebularine; 31.62 µM) | relative viability (Zebularine; 100 µM)
201T | 0.989 | 0.962 | 0.975 | 0.985 | 0.959 | 1.08 | 0.986 | 0.776 | 1 | 0.947
A549 | 1.06 | 0.908 | 0.975 | 1.04 | 0.848 | 1.08 | 0.913 | 0.519 | 0.75 | 0.155
A-427 | 1.18 | 0.945 | 0.997 | 1.04 | 0.801 | 1.11 | 0.898 | 0.65 | 0.55 | 0.267
ABC-1 | 0.949 | 0.887 | 0.92 | 1.01 | 0.761 | 0.922 | 0.724 | 0.687 | 0.641 | 0.494
BEN | 1.03 | 0.915 | 1.05 | 1.07 | 0.845 | 0.913 | 0.788 | 0.45 | 0.378 | 0.333
CAL-12T | 1.14 | 0.87 | 0.946 | 0.97 | 0.682 | 1.03 | 0.871 | 0.793 | 0.993 | 0.671
COR-L23 | 1.12 | 0.945 | 1.09 | 1.13 | 0.83 | 1.07 | 1.05 | 0.484 | 0.504 | 0.177
COR-L 105 | 0.895 | 0.836 | 0.949 | 0.939 | 0.888 | 1.03 | 0.952 | 0.831 | 1.15 | 0.873
Calu-6 | 1.11 | 0.865 | 0.998 | 0.904 | 0.676 | 1.18 | 0.99 | 0.747 | 0.7 | 0.246
ChaGo-K-1 | 1.05 | 0.991 | 0.9 | 0.962 | 0.868 | 1.03 | 0.97 | 0.525 | 0.317 | 0.244
EBC-1 | 0.995 | 0.889 | 0.839 | 0.654 | 0.361 | 1.1 | 0.811 | 0.842 | 1.11 | 0.974
EKVX | 1.06 | 0.94 | 0.889 | 1.11 | 0.931 | 1.04 | 0.961 |  | 1.03 | 0.985
EMC-BAC-2 | 1.1 | 1.01 | 0.891 | 1.01 | 0.904 | 1.07 | 0.994 | 0.775 | 0.981 | 1.06
EPLC-272H | 1.12 | 0.802 | 0.926 | 0.821 | 0.627 | 1.14 | 0.577 | 0.558 | 0.811 | 0.724
H3255 | 1.01 | 0.97 | 1.04 | 1.09 | 0.994 | 1.01 | 0.948 | 0.782 | 0.998 | 1.05
HARA | 1.03 | 0.905 | 0.932 | 1.27 | 0.804 | 1.09 | 1.13 |  | 1.06 | 0.897
HCC-15 | 1.02 | 0.935 | 0.93 | 1.02 | 0.725 | 1.11 | 0.974 | 0.752 | 0.906 | 0.497
HCC-44 | 1.04 | 0.876 | 0.989 | 1.07 | 1.03 | 1.05 | 1.02 | 0.701 | 0.843 | 0.44
HCC-78 | 0.952 | 1 | 0.97 | 1.16 | 0.875 | 1.07 | 0.945 | 0.626 | 0.916 | 0.387
HCC-366 | 1.02 | 0.928 | 0.995 | 1.04 | 0.951 | 1.03 | 0.995 | 0.928 | 0.856 | 0.297
HCC-827 | 1.05 | 1.05 | 1.04 | 1.03 | 1.01 | 1.08 | 1.03 | 0.851 | 0.877 | 0.47
HOP-62 | 1.18 | 1.01 | 0.965 | 1.03 | 0.949 | 1.11 | 0.911 | 0.564 | 0.287 | 0.213
IA-LM | 1.13 | 0.863 | 0.913 | 1.05 | 0.646 | 1.12 | 0.809 |  | 1.14 | 0.863
LC-2-ad | 1.08 | 0.957 | 1.02 | 1.01 | 0.868 | 1.02 | 0.937 | 0.653 | 0.719 | 0.355
LCLC-97TM1 | 1.3 | 0.978 | 0.756 | 1.1 | 0.841 | 1.03 | 0.913 | 0.652 | 0.335 | 0.143
LCLC-103H | 1.03 | 0.967 | 0.94 | 1.06 | 0.838 | 0.959 | 0.987 | 0.867 | 1.04 | 0.842
LK-2 | 1.14 | 1 | 1.28 | 1.21 | 0.973 | 1 | 1.03 | 0.556 | 0.544 | 0.392
LOU-NH91 | 1.05 | 0.945 | 0.895 | 1.04 | 0.729 | 0.976 | 1.01 | 0.875 | 0.979 | 0.725
LU99A | 1.01 | 0.822 | 0.98 | 0.827 | 0.77 | 1.06 | 0.997 | 0.883 | 0.689 | 0.246
